{"source": "patent US20240228487A1", "about": "“FUSED HETEROCYCLIC COMPOUND AND APPLICATION THEREOF, PHARMACEUTICAL COMPOSITIONS CONTAINING SAME AND APPLICATION THEREOF” (ZHEJIANG UNIVERSITY, priority 2021, published 2024)", "key": {"human TRPM2 channels": {"target": "T1, human TRPM2 channels (Homo sapiens, UniProt O94759)", "T1 construct": "expressed in transfected cells", "T1 sequence (O94759 whole entry, the tested form may be a part)": "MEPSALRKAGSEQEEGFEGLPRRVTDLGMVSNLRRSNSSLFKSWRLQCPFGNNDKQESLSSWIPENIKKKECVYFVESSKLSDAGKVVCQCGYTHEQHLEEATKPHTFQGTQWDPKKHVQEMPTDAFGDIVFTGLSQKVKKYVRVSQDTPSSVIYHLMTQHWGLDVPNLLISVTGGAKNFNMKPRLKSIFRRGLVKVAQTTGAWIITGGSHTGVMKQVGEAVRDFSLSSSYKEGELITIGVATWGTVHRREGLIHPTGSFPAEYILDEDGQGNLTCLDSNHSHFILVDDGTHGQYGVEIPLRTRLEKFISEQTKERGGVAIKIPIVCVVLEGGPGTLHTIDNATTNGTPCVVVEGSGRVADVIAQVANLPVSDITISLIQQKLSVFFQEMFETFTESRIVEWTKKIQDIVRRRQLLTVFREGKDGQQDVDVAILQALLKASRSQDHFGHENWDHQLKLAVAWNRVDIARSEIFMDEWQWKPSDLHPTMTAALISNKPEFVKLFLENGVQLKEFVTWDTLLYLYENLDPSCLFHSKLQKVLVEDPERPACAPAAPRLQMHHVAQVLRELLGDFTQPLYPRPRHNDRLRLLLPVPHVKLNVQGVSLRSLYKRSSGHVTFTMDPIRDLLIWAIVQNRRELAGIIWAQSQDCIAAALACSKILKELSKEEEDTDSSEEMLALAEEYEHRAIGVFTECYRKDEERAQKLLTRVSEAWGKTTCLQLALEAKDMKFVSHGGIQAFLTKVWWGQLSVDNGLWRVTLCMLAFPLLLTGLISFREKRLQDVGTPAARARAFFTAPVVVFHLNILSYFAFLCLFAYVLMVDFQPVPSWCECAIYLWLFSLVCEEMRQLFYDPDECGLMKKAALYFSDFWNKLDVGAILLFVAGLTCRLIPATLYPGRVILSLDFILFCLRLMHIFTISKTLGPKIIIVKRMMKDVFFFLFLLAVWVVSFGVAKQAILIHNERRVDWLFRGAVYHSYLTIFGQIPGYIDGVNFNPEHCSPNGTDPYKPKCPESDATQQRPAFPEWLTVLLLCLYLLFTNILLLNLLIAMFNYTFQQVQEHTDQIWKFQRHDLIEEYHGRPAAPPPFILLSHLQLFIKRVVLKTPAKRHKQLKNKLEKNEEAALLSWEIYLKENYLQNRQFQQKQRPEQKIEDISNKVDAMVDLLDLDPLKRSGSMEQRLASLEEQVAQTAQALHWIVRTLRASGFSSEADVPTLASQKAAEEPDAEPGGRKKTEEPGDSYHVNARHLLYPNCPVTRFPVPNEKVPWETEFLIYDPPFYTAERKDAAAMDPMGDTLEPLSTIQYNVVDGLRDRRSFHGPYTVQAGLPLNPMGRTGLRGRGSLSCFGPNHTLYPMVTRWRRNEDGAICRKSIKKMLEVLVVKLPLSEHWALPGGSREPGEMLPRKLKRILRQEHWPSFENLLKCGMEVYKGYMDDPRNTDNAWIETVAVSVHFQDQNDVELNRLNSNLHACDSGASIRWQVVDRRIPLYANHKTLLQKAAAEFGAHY", "experiment": "whole cell patch clamp, inhibition of TRPM2 channel current", "type": "cell-based", "settings": "HEK293 cells stably expressing human TRPM2, 500 μM ADPR", "experimental": "The fused heterocyclic compound of the present invention has an inhibitory effect on the TRPM2 channel, and its pharmacological activity is measured using whole cell patch clamp technology, the corresponding steps are as follows: Incubating HEK293 cells stably expressing human TRPM2 channels in DMEM/F-12 medium containing 10% bovine serum, 50 units/mL of penicillin and […] of streptomycin under the condition of 5% CO2 and 37° C. The cells before testing are stored in the extracellular fluid (147 mM NaCl, 2 mM KCl, 1 mM MgCl2, 2 mM CaCl2, 10 mM HEPES, 13 mM glucose, pH 7.4). The electrode is filled with the electrode internal solution (147 mM NaCl, 0.05 mM EGTA, 1 mM MgCl2, 10 mM HEPES, 0.5 mM ADPR, pH=7.3), and the resistance is maintained at 3-5 M Ω. Administering ADPR into cells through electrodes, and detecting the ADPR concentration used to activate TRPM2 as 500 μM, when detecting a stable current, perfusing the corresponding concentration of fused heterocyclic compound II-1 into the extracellular fluid for at least 60 seconds. record the change in current magnitude using voltage ramp mode, changing the voltage from −100 mV to+100 mV within 500 ms, with a normal clamp voltage of 0 mV and a TRPM every 5 seconds; finally, replacing the extracellular fluid with a solution with pH=5.0 to block the TRPM2 current, the electrophysiological current test results obtained are shown in Table 1, and the electrophysiological current graph obtained is shown in FIG. 1. Similarly, administering corresponding concentrations of other fused heterocyclic compounds (II-2˜II-54, III-1˜III-11) into the extracellular fluid, taking electrophysiological tests using the same method, the results are shown in Table 1. The electrophysiological representative current graphs of some fused heterocyclic compounds (II-9, II-19, and II-36) inhibiting TRPM2 channel current are shown in FIG. 1."}, "[1]": {"system": "dopaminergic neurons differentiated from iPSC derived from disseminated PD patients", "experiment": "cell viability (cell titer glo) of iPSC differentiated dopaminergic neurons", "type": "cell-based, human", "settings": "II-23 0.6 μM, ACA 0.5 μM, from day 15 of culture; CTG kit", "experimental": "Using normal and disseminated PD patient-derived induced pluripotent stem cells (iPSC), performing drug interventions using the TRPM2 inhibitors ACA and II-23 after they were induced and differentiated into mature dopaminergic neurons, the drug treating method is as follows: • a. Calculating the materials for the experiment, and starting preparing when the dopaminergic neurons are differentiated to the 8th day. The petri dishes should be treated with 33 μg/mL PDL overnight and washed with sterilized water. After drying, 2 μg/mL of laminin was added and incubated overnight. Both PDL and laminin can be recycled for reuse. • b. Digesting and collecting the differentiated cells with Accutase, and counting with a cell counting plate, and then diluting to 500,000/mL with maturation medium (Y-27632 should be added). Fluorescence confocal imaging was performed using a confocal dish inoculated with 2 mL/dish, and cell viability assays were performed using a 96-well plate inoculated with 100 μL/well. Taking this time point as the 10th day, changing to Y-27632-free medium on the 11th day, and changing the medium every two days. • c. When the cells were cultured to the 15th day, treating the drugs to a final concentration with the medium, the working concentration of ACA is 0.5 μM, and the working concentration of II-23 is 0.6 μM, and the drug-containing medium was changed every four days. […]"}}}
{"compound": "CCN(CC)C(=O)c1cc(C(=O)c2ccccc2)n2cccc2c1", "note": "[II-23, 5-Benzoyl-N, N-diethylindolizine-7-formamide]", "values": [{"measurement": "IC50", "setting": "human TRPM2 channels", "result": "1 to 10", "unit": "µM"}, {"measurement": "cell viability of differentiated dopaminergic neurons derived from disseminated PD patients", "setting": "[1]", "result": "restored"}]}
